{"source": "patent US11382907B2", "about": "“Methods and compositions for treating aging-associated impairments using CCR3-inhibitors” (Alkahest, Inc., priority 2017, dated 2022)", "key": {"[1]": {"experiment": "Pharmacokinetic profile after P.O. dosing (plasma concentration)", "assay_type": "in vivo", "settings": "mouse, 30 mg/kg oral gavage, male 2-month-old C57Bl/6 mice, for 8 hours, read-out: plasma concentration of Compound 1 maintained for 8 hours", "experimental": "Compound levels were measured by MS/MS by Quintara (Hayward, Calif.).\nPlasma from male 2-month-old C57Bl/6 mice was measured for concentrations of Compound 1 at time points of 20 minutes, 2 hours, 8 hours, and 12 hours after oral gavage at 2 doses: 30 mg/kg and 150 mg/kg."}, "[2]": {"system": "three-month-old C57 mice treated with LPS", "experiment": "Y maze test in mice given daily LPS", "assay_type": "in vivo", "settings": "3-month-old mice; daily LPS 0.5 mg/kg IP; 30 mg/kg PO BID, after 3 weeks", "experimental": "A large Y-maze test assesses short-term memory of the familiarity of a specific context. Mice are brought to the experimental room for at least 30 min of acclimation to the experimental room conditions (dim lighting) prior to testing. For the initial training trial, the mouse is placed at the end of one arm of a large Y-maze designated “start arm” (arm length: 15 inches). The third arm of the maze is blocked off, allowing the mouse to explore two of the three arms freely (“start arm” and “familiar arm”) for 5 min. Each arm contains spatial cues. One hour later, the mouse is placed back into the maze in the “start arm” and allowed to explore all three arms with the third arm unblocked (“novel arm”). Movements in and out of each arm are tracked using automated tracking software (CleverSys). Testing is performed under dim lighting, and the apparatus is cleaned with 70% ethanol between trials.\nThree-month-old C57 mice were given daily doses of lipopolysaccharide (LPS) 0.5 mg/kg IP to induce inflammation and treated with Compound 1 for up to 4 weeks. […]"}, "CCR3 receptor": {"biological_target": "T1, CCR3 receptor (Homo sapiens, UniProt P51677)", "T1 sequence (P51677 1-355)": "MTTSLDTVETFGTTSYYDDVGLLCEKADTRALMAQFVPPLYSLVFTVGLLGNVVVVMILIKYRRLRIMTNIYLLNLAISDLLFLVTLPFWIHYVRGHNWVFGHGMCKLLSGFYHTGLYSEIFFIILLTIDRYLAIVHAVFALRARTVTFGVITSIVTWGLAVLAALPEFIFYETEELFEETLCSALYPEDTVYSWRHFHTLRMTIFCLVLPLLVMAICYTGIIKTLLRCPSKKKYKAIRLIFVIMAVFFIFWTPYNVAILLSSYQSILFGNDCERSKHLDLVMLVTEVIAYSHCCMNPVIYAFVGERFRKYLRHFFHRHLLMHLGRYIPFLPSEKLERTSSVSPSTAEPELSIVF", "experiment": "CCR3 receptor internalization biomarker assay (FACS, whole blood)", "assay_type": "cell-based", "description": "The CCR3 receptor internalization assay is FACS-based and uses human Eotaxin-1 (PreProTech, Rocky Hill, N.J.) and an anti-human CCR3 antibody labeled with APC (R&D Systems, Minneapolis, Minn.) or isotype control IgG2A antibody to monitor CCR3 receptor internalization in human eosinophils induced by human eotaxin-1 compared to naïve eosinophils. The median APC fluorescent intensity units for each sample were determined along with the mean of each set of sample triplicates."}, "[3]": {"system": "twenty-four-month-old C57 mice", "experiment": "Rotarod test for motor coordination in aged mice", "assay_type": "in vivo", "settings": "4 weeks continuous infusion by osmotic pump", "experimental": "The mice were trained in the rotarod for 3 trials up to 100 seconds each, the rotarod being a test of motor coordination. Success or failure was recorded on the last trial, with success defined by a latency to fall of >90 seconds. A binomial test was conducted to compare success rates between control and compound-treated mice.\nTwenty-four-month-old C57 mice were treated for 4 weeks with continuous infusion of Compound 1 or vehicle by Alzet osmotic pump, which were implanted to continuously deliver the two treatments.\nTreatment Groups: • Treatment Group 1, Old Controls: Aged C57BL/6 mice (n=15), aged 23 months, received infusion of vehicle by Alzet mini-pump, model 2002 (0.5 uL/hr), for four weeks with one replacement. • Treatment Group 2, Compound 1 (dose 2) in Old: Aged C57BL/6 mice (n=15), aged 23 months, received infusion of ˜50 mg/ml Compound 1 by Alzet mini-pump, model 2002 (0.5 uL/hr), for four weeks with one replacement."}, "[4]": {"system": "two-month-old C57Bl/6 mice treated with rmCCL11", "experiment": "Open Field test in young mice given recombinant mouse CCL11", "assay_type": "in vivo", "settings": "2-month-old mice; rmCCL11 i.p.; Compound 1 30 mg/kg p.o. b.i.d., 2 weeks", "experimental": "Open Field is used to evaluate general locomotor activity and exploratory behavior in a novel environment. Mice are brought to the experimental room for at least 30 min for acclimation to the experimental room conditions (dim lighting) prior to testing. The testing arena consists of a 50 cm×50 cm square arena. Mice are placed in the center of an arena and tracked for 15 minutes. Time spent in the peripheral and centers zones is analyzed, along with rearing behavior. 70% ethanol is used to clean all surfaces between trials.\n[…] During the last week of treatment, mice were subjected to behavior testing prior to perfusion on the last day of treatment. All mice received 5 consecutive days of BrdU injection at 150 mg/kg IP immediately prior to treatment start. […]"}}, "data": [{"smiles": "Cc1cc(C(=O)N(C)C)cc(NC(=O)[C@H]2CCC(=O)N2C2CCN(Cc3ccc(Cl)c(C)c3)CC2)n1", "note": "[Compound 1]", "values": [{"measurement": "concentration at 8 hours", "setting": "[1]", "result": "> 100", "unit": "nM"}, {"measurement": "Y maze preference for the novel arm", "setting": "[2]", "result": "showed a significant preference for the novel arm"}, {"measurement": "IC50", "setting": "CCR3 receptor", "result": "< 100", "unit": "nM"}, {"measurement": "inhibition of CCR3 receptor internalization versus plasma Compound 1 concentration", "setting": "CCR3 receptor; whole blood from humans treated with Compound 1, incubated with human recombinant eotaxin-1", "result": "robust concentration-dependent effect"}, {"measurement": "proportion of mice able to stay on the rod for longer than 90 seconds", "setting": "[3]; control 20%", "result": 47, "unit": "%"}, {"measurement": "Rotarod success versus vehicle (binomial test)", "setting": "[3]; success = latency to fall >90 seconds", "result": "succeeded more than vehicle-treated mice"}, {"measurement": "anxiety in the Open Field", "setting": "[4]", "result": "improved anxiety"}]}]}
